# Activity calls are given as the source filed them. No cut-off for these calls is given here.
# Legend:
# Bos taurus [1] = species: Bos taurus; experiment: Neutralization of unfractionated heparin in bovine plasma at 10 to 60 ug/ml by aPTT assay; assay type: cell-free; settings: dose 10-60 µg/ml
# Bos taurus [2] = species: Bos taurus; experiment: Neutralization of dalteparin sodium in bovine plasma at 10 to 60 ug/ml by aPTT assay; assay type: cell-free; settings: dose 10-60 µg/ml
# Bos taurus [3] = species: Bos taurus; experiment: Neutralization of enoxaparin sodium in bovine plasma at 10 to 60 ug/ml by aPTT assay; assay type: cell-free; settings: dose 10-60 µg/ml
# Bos taurus [4] = species: Bos taurus; experiment: Neutralization of nadroparin calcium in bovine plasma at 10 to 60 ug/ml by aPTT assay; assay type: cell-free; settings: dose 10-60 µg/ml
# Homo sapiens [5] = species: Homo sapiens; experiment: Neutralization of dalteparin sodium in human poor platelet plasma at 10 to 50 ug/ml by aPTT assay; assay type: cell-free; settings: dose 10-50 µg/ml
# [6] = Acute toxicity in iv dosed ICR mouse assessed as maximum tolerated dose measured after 7 days; assay type: organism-based; settings: in vivo, time 7 day
# [7] = Binding affinity to unfractionated heparin in saline at pH 7.4 assessed as binding constant by ITC analysis
# [8] = Binding affinity to dalteparin sodium in saline at pH 7.4 assessed as binding constant by ITC analysis
# [9] = Binding affinity to enoxaparin sodium in saline at pH 7.4 assessed as binding constant by ITC analysis
# [10] = Binding affinity to nadroparin calcium in saline at pH 7.4 assessed as binding constant by ITC analysis
# [11] = Binding affinity to unfractionated heparin in saline at pH 7.4 assessed as change in enthalpy by ITC analysis
# [12] = Binding affinity to dalteparin sodium in saline at pH 7.4 assessed as change in enthalpy by ITC analysis
# [13] = Binding affinity to enoxaparin sodium in saline at pH 7.4 assessed as change in enthalpy by ITC analysis
# [14] = Binding affinity to nadroparin calcium in saline at pH 7.4 assessed as change in enthalpy by ITC analysis
# [15] = Binding affinity to unfractionated heparin in saline at pH 7.4 assessed as change in entropy by ITC analysis
# [16] = Binding affinity to dalteparin sodium in saline at pH 7.4 assessed as change in entropy by ITC analysis
# [17] = Binding affinity to enoxaparin sodium in saline at pH 7.4 assessed as change in entropy by ITC analysis
# [18] = Binding affinity to nadroparin calcium in saline at pH 7.4 assessed as change in entropy by ITC analysis
# [19] = Binding affinity to unfractionated heparin in saline at pH 7.4 assessed as change in gibbs free energy by ITC analysis
# [20] = Binding affinity to dalteparin sodium in saline at pH 7.4 assessed as change in gibbs free energy by ITC analysis
# [21] = Binding affinity to enoxaparin sodium in saline at pH 7.4 assessed as change in gibbs free energy by ITC analysis
# [22] = Binding affinity to nadroparin calcium in saline at pH 7.4 assessed as change in gibbs free energy by ITC analysis
# [23] = Blood compatibility in bovine plasma assessed as activated partial thromboplastin time at <23 ug/ml by turbidimetry method; assay type: toxicity, cell-free, Bos taurus; settings: cattle, dose < 23 µg/ml
# Erythrocyte [24] = experiment: Hemolytic activity in human red blood cells at 256 ug/ml; assay type: toxicity, cell-based; settings: dose 256 µg/ml
# Erythrocyte [25] = experiment: Hemolytic activity in Sprague-Dawley rat red blood cells at 256 ug/ml; assay type: toxicity, cell-based; settings: dose 256 µg/ml
# Homo sapiens [26] = species: Homo sapiens; experiment: Neutralization of enoxaparin sodium in human poor platelet plasma at 10 to 50 ug/ml by aPTT assay; assay type: cell-free; settings: dose 10-50 µg/ml
# Homo sapiens [27] = species: Homo sapiens; experiment: Reversal of anticoagulation of unfractionated heparin in human whole blood assessed as minimum effective dose incubated for 5 mins by thromboelastography; assay type: tissue-based
# Homo sapiens [28] = species: Homo sapiens; experiment: Reversal of anticoagulation of dalteparin sodium in human whole blood assessed as minimum effective dose incubated for 5 mins by thromboelastography; assay type: tissue-based
# Homo sapiens [29] = species: Homo sapiens; experiment: Reversal of anticoagulation of enoxaparin sodium in human whole blood assessed as minimum effective dose incubated for 5 mins by thromboelastography; assay type: tissue-based
# Homo sapiens [30] = species: Homo sapiens; experiment: Reversal of anticoagulation of nadroparin calcium in human whole blood assessed as minimum effective dose incubated for 5 mins by thromboelastography; assay type: tissue-based
# [31] = Blood compatibility in bovine plasma assessed as activated partial thromboplastin time at <54 ug/ml by turbidimetry method; assay type: toxicity, cell-free, Bos taurus; settings: cattle, dose < 54 µg/ml
# Erythrocyte [32] = experiment: Hemolytic activity in human red blood cells at 512 ug/ml; assay type: toxicity, cell-based; settings: dose 512 µg/ml
# Erythrocyte [33] = experiment: Hemolytic activity in Sprague-Dawley rat red blood cells at 512 ug/ml; assay type: toxicity, cell-based; settings: dose 512 µg/ml
# Homo sapiens [34] = species: Homo sapiens; experiment: Neutralization of unfractionated heparin in human poor platelet plasma at 10 to 50 ug/ml by aPTT assay relative to control; assay type: cell-free; settings: dose 10-50 µg/ml
# Homo sapiens [35] = species: Homo sapiens; experiment: Neutralization of dalteparin sodium in human poor platelet plasma at 10 to 50 ug/ml by aPTT assay relative to control; assay type: cell-free; settings: dose 10-50 µg/ml
# Homo sapiens [36] = species: Homo sapiens; experiment: Neutralization of enoxaparin sodium in human poor platelet plasma at 10 to 50 ug/ml by aPTT assay relative to control; assay type: cell-free; settings: dose 10-50 µg/ml
# Bos taurus [37] = species: Bos taurus; experiment: Neutralization of unfractionated heparin in bovine plasma at 10 to 60 ug/ml by aPTT assay relative to control; assay type: cell-free; settings: dose 10-60 µg/ml
# Bos taurus [38] = species: Bos taurus; experiment: Neutralization of dalteparin sodium in bovine plasma at 10 to 60 ug/ml by aPTT assay relative to control; assay type: cell-free; settings: dose 10-60 µg/ml
# Bos taurus [39] = species: Bos taurus; experiment: Neutralization of enoxaparin sodium in bovine plasma at 10 to 60 ug/ml by aPTT assay relative to control; assay type: cell-free; settings: dose 10-60 µg/ml
# Bos taurus [40] = species: Bos taurus; experiment: Neutralization of nadroparin calcium in bovine plasma at 10 to 60 ug/ml by aPTT assay relative to control; assay type: cell-free; settings: dose 10-60 µg/ml
structure (smiles),measurement,setting,value
Cn1cc[n+](Cc2ccc(C(c3ccc(C[n+]4ccn(C)c4)cc3)(c3ccc(C[n+]4ccn(C)c4)cc3)c3ccc(C[n+]4ccn(C)c4)cc3)cc2)c1,Activity,Bos taurus [1],inactive
same,Activity,Bos taurus [2],inactive
same,Activity,Bos taurus [3],inactive
same,Activity,Bos taurus [4],inactive
NCCOc1cc(-c2cc[n+](Cc3ccc(C(c4ccc(C[n+]5ccc(-c6cc(OCCN)c(OCCN)c(OCCN)c6)cc5)cc4)(c4ccc(C[n+]5ccc(-c6cc(OCCN)c(OCCN)c(OCCN)c6)cc5)cc4)c4ccc(C[n+]5ccc(-c6cc(OCCN)c(OCCN)c(OCCN)c6)cc5)cc4)cc3)cc2)cc(OCCN)c1OCCN.[Cl-].[Cl-].[Cl-].[Cl-],Activity,Homo sapiens [5],Active
same,Activity,Bos taurus [2],Active
same,MTD at 168 h,[6],20 mg/kg
same,Ka,[7],3.72e+06 M⁻¹
same,Ka,[8],7.09e+06 M⁻¹
same,Ka,[9],4.85e+06 M⁻¹
same,Ka,[10],5.43e+06 M⁻¹
same,deltaH,[11],-5.33 kcal/mol
same,deltaH,[12],-4.86 kcal/mol
same,deltaH,[13],-5.63 kcal/mol
same,deltaH,[14],-4.83 kcal/mol
same,-TdeltaS,[15],-3.64 kcal/mol
same,-TdeltaS,[16],-4.48 kcal/mol
same,-TdeltaS,[17],-3.49 kcal/mol
same,-TdeltaS,[18],-4.37 kcal/mol
same,deltaG,[19],-8.97 kcal/mol
same,deltaG,[20],-9.35 kcal/mol
same,deltaG,[21],-9.12 kcal/mol
same,deltaG,[22],-9.19 kcal/mol
same,APTT,[23],23 s
same,Activity,Erythrocyte [24],Non-Toxic
same,Activity,Erythrocyte [25],Non-Toxic
NCCOc1ccc(-n2cc[n+](Cc3ccc(C(c4ccc(C[n+]5ccn(-c6ccc(OCCN)cc6)c5)cc4)(c4ccc(C[n+]5ccn(-c6ccc(OCCN)cc6)c5)cc4)c4ccc(C[n+]5ccn(-c6ccc(OCCN)cc6)c5)cc4)cc3)c2)cc1,Activity,Bos taurus [1],Active
same,Activity,Bos taurus [2],Active
same,Activity,Bos taurus [3],Active
same,Activity,Bos taurus [4],Active
NCCOc1ccc2c[n+](Cc3ccc(C(c4ccc(C[n+]5ccc6cc(OCCN)ccc6c5)cc4)(c4ccc(C[n+]5ccc6cc(OCCN)ccc6c5)cc4)c4ccc(C[n+]5ccc6cc(OCCN)ccc6c5)cc4)cc3)ccc2c1,Activity,Bos taurus [1],Active
same,Activity,Bos taurus [2],Active
same,Activity,Bos taurus [3],Active
same,Activity,Bos taurus [4],Active
NCCOc1ccc(-c2cc[n+](Cc3ccc(C(c4ccc(C[n+]5ccc(-c6ccc(OCCN)cc6)cc5)cc4)(c4ccc(C[n+]5ccc(-c6ccc(OCCN)cc6)cc5)cc4)c4ccc(C[n+]5ccc(-c6ccc(OCCN)cc6)cc5)cc4)cc3)cc2)cc1.[Cl-].[Cl-].[Cl-].[Cl-],Activity,Bos taurus [3],Active
same,Activity,Homo sapiens [26],Active
same,MTD at 168 h,[6],17.5 mg/kg
same,Ka,[7],4.72e+06 M⁻¹
same,Ka,[8],8.77e+06 M⁻¹
same,Ka,[9],4.61e+06 M⁻¹
same,Ka,[10],5e+06 M⁻¹
same,deltaH,[11],-4.67 kcal/mol
same,deltaH,[12],-4.53 kcal/mol
same,deltaH,[13],-5.87 kcal/mol
same,deltaH,[14],-4.38 kcal/mol
same,-TdeltaS,[15],-4.43 kcal/mol
same,-TdeltaS,[16],-4.94 kcal/mol
same,-TdeltaS,[17],-3.23 kcal/mol
same,-TdeltaS,[18],-4.77 kcal/mol
same,deltaG,[19],-9.11 kcal/mol
same,deltaG,[20],-9.47 kcal/mol
same,deltaG,[21],-9.09 kcal/mol
same,deltaG,[22],-9.15 kcal/mol
same,MED,Homo sapiens [27],12 µg/mL
same,MED,Homo sapiens [28],10 µg/mL
same,MED,Homo sapiens [29],10 µg/mL
same,MED,Homo sapiens [30],10 µg/mL
same,APTT,[31],23 s
same,Activity,Erythrocyte [32],Non-Toxic
same,Activity,Erythrocyte [33],Non-Toxic
COc1ccc(-c2cc[n+](Cc3ccc(C(c4ccc(C[n+]5ccc(-c6ccc(OC)cc6)cc5)cc4)(c4ccc(C[n+]5ccc(-c6ccc(OC)cc6)cc5)cc4)c4ccc(C[n+]5ccc(-c6ccc(OC)cc6)cc5)cc4)cc3)cc2)cc1,Activity,Bos taurus [1],inactive
same,Activity,Bos taurus [2],inactive
same,Activity,Bos taurus [3],inactive
same,Activity,Bos taurus [4],inactive
NCC(=O)Nc1ccc(-c2cc[n+](Cc3ccc(C(c4ccc(C[n+]5ccc(-c6ccc(NC(=O)CN)cc6)cc5)cc4)(c4ccc(C[n+]5ccc(-c6ccc(NC(=O)CN)cc6)cc5)cc4)c4ccc(C[n+]5ccc(-c6ccc(NC(=O)CN)cc6)cc5)cc4)cc3)cc2)cc1.[Cl-].[Cl-].[Cl-].[Cl-],Activity,Homo sapiens [34],> 98%
same,Activity,Homo sapiens [35],> 98%
same,Activity,Homo sapiens [36],> 98%
same,Activity,Bos taurus [1],Active
same,Activity,Bos taurus [2],Active
same,Activity,Bos taurus [3],Active
same,Activity,Bos taurus [4],Active
same,Activity,Bos taurus [37],> 98%
same,Activity,Bos taurus [38],> 98%
same,Activity,Bos taurus [39],> 98%
same,MTD at 168 h,[6],8 mg/kg
NCCSc1ccc(-c2cc[n+](Cc3ccc(C(c4ccc(C[n+]5ccc(-c6ccc(SCCN)cc6)cc5)cc4)(c4ccc(C[n+]5ccc(-c6ccc(SCCN)cc6)cc5)cc4)c4ccc(C[n+]5ccc(-c6ccc(SCCN)cc6)cc5)cc4)cc3)cc2)cc1.[Cl-].[Cl-].[Cl-].[Cl-],Activity,Bos taurus [1],Active
same,Activity,Bos taurus [2],Active
same,Activity,Bos taurus [3],Active
same,Activity,Bos taurus [4],Active
same,MTD at 168 h,[6],8 mg/kg
NCCCOc1ccc(-c2cc[n+](Cc3ccc(C(c4ccc(C[n+]5ccc(-c6ccc(OCCCN)cc6)cc5)cc4)(c4ccc(C[n+]5ccc(-c6ccc(OCCCN)cc6)cc5)cc4)c4ccc(C[n+]5ccc(-c6ccc(OCCCN)cc6)cc5)cc4)cc3)cc2)cc1.[Cl-].[Cl-].[Cl-].[Cl-],Activity,Homo sapiens [34],> 98%
same,Activity,Homo sapiens [35],> 98%
same,Activity,Homo sapiens [36],> 98%
same,Activity,Bos taurus [1],Active
same,Activity,Bos taurus [2],Active
same,Activity,Bos taurus [3],Active
same,Activity,Bos taurus [4],Active
same,Activity,Bos taurus [40],> 86%
same,Activity,Bos taurus [37],> 98%
same,Activity,Bos taurus [38],> 98%
same,Activity,Bos taurus [39],> 98%
same,MTD at 168 h,[6],15 mg/kg
c1cc[n+](Cc2ccc(C(c3ccc(C[n+]4ccccc4)cc3)(c3ccc(C[n+]4ccccc4)cc3)c3ccc(C[n+]4ccccc4)cc3)cc2)cc1,Activity,Bos taurus [1],inactive
same,Activity,Bos taurus [2],inactive
same,Activity,Bos taurus [3],inactive
same,Activity,Bos taurus [4],inactive
